Like-named read-outs stand apart in the source and are kept apart here.
Experiments:
[1] = biological target: T1, FL-SMARCA2 (full-length human SMARCA2 isoform 1) (Homo sapiens, UniProt P51531); assay: SMARCA2 ATPase activity assay (ADP-Glo, chicken mononucleosome substrate); type: biochemical; conditions: ATPase assay, enzyme 5 nM, ATP 250 uM, chicken mononucleosome 10 nM, 30 min preincubation
T1 construct: FLAG tag (YKDDDDK) (C); made in house; host or cells: Sf21 insect cells (baculovirus, pFastBacI)
T1 sequence (P51531 with tags, fused parts or gaps): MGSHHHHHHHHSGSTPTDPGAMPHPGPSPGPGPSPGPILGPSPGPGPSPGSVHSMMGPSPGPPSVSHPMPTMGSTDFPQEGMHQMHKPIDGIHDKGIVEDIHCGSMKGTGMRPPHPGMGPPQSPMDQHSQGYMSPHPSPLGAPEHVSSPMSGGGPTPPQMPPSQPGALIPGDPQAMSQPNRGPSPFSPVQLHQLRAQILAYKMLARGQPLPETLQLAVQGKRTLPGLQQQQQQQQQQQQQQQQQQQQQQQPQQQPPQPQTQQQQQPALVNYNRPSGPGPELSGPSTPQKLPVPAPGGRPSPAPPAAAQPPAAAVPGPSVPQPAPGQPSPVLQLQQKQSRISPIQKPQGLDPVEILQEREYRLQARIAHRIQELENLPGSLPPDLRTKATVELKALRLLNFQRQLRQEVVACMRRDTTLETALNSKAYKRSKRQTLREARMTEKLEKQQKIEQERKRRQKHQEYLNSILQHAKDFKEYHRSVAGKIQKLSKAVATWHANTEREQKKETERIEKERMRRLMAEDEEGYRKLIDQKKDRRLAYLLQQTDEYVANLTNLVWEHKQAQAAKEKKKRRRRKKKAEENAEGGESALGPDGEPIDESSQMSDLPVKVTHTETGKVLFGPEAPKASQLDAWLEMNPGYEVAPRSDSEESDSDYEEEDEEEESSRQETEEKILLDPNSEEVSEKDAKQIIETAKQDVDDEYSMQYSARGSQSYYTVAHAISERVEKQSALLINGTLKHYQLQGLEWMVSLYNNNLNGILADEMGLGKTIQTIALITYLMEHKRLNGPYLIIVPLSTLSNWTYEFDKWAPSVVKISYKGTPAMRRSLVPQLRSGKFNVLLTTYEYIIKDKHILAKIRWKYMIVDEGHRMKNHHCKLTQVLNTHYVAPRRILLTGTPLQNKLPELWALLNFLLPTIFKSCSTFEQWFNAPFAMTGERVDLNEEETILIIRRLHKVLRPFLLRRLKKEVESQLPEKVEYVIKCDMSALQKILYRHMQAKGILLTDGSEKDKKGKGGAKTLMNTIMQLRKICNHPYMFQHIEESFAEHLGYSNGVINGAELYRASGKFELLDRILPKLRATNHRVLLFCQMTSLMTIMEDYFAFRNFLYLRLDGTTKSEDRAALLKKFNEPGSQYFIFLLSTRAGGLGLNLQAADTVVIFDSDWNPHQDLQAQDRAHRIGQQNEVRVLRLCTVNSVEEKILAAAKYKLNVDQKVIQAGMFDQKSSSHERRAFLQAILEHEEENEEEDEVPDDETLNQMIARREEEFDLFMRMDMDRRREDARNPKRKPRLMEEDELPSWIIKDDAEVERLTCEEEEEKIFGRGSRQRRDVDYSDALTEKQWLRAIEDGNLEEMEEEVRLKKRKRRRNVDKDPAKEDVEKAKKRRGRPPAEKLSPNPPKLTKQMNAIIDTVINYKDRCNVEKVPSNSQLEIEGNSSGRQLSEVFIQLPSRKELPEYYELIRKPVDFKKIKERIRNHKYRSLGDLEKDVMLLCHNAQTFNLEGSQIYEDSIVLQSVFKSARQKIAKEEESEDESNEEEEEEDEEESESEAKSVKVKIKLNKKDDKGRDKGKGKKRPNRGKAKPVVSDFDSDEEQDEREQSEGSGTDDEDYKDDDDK

A549 cells = assay: High-throughput proliferation (HTP) assay for A549 cells (CellTiter-Glo, 7 days); type: cell-based; conditions: Homo sapiens, 168 h, read-out: A549 SMARCA2 IC50
Experimental: Thawing vials: A549 cells (ATCC #CCL-185™) were thawed from a cryovial containing approximately 1.6×10^6 cells frozen in 70% F12K medium, 20% HI-FBS and 10% DMSO. Cells were thawed by submerging the bottom half of the vial in a 37° C. water bath and gently flicked until almost thawed. The cells were transferred into a 15 mL conical tube containing 9 mL of F12K medium+10% HI-FBS and then centrifuged at 200×g for 4 min before drawing off the media without disturbing the cell pellet in order to remove the DMSO. The cells were resuspended again in 15 mL of F12K fresh complete media+10% HI-FBS and grown up in a T75 flask at 37° C. with 5% CO2 Incubator. Viability was measured to obtain baseline.
Frozen stock vials preparation: The cell culture was transferred to a 50 mL conical tube, spun down to remove medium, and resuspended at 1-2×10^6 cells/mL in complete medium containing 10% DMSO. The culture was then stored for 24 hours at −80 degree C., (with the initial rate of freezing is −1 degree C. per minute in a freezing container), then transferred and stored in liquid nitrogen.
(§1) Routine subculture: Sub-confluent cultures (70-80%) were split every 4 days, seeding out at 1-2×10^6 cells/75 cm^2.
Day 0: Assay ready plates were prepared by dispensing 50 nL of compound or DMSO in the appropriate wells of 384-well white CulturPlates using Echo550. Using the Multiflo, A549 cells were plated at 50 μL/well in F12K complete media+10% HI-FBS+1% pen/strep at cell density determined [1,250 cells/mL (62.5 cells/well)] from growth curve.
Treated cells were incubated at 37° C., 5% CO2, relative humidity >90% for 7 days. CellTiter-Glo (CTG) ATP detection reagent was prepared according to manufacturer's specifications. Cell assay plates were removed from the incubator and brought to room temperature (RT). Using the MultiDrop liquid handler, 30 μL of CTG were added per well. Plates were placed on the multidrop dispenser shake for 5 seconds at room temperature (RT). Plates were incubated for 30 minutes in the dark at RT before measuring luminescence using the Envison2104.
Data analysis: Using the DMSO control wells as the 0% inhibition (high signal) control and the 10 μM Doxorubicin control wells as the 100% inhibition (low signal) control, percent inhibition EC50s (inflection point) and IC50 s were calculated for the compound dose responses.

H358 cells = assay: High-throughput proliferation (HTP) assay for H358 cells (CellTiter-Glo, 7 days); type: cell-based; conditions: Homo sapiens, NCI-H358, 168 h, read-out: H358 SMARCA2 IC50
Experimental: Thawing vials: H358 cells (ATCC #CRL-5807™) were thawed from a cryovial containing approximately 1.6×10^6 cells frozen in 70% RPMI 1640 medium, 20% HI-FBS and 10% DMSO. Cells were thawed by submerging the bottom half of the vial in a 37° C. water bath and gently flicked until almost thawed. The cells were removed and transferred into a 15 mL conical tube containing 9 mL RPMI 1640 medium+10% HI-FBS and then centrifuged 200×g for 4 min before drawing off the media without disturbing the cell pellet to remove the DMSO. The cells were resuspended again in 15 mL of RPMI 1640 fresh complete media+10% HI-FBS and grown up in a T75 flask at 37° C. with 5% CO2 Incubator. Viability was measured to obtain baseline.
Preparing frozen stock vials: Cell density was counted in a stock flask. The culture was transferred to a 50 mL conical tube and spun down to remove medium, and then resuspend at 1-2×10^6 cells/mL in complete medium containing 10% DMSO and transferred to a 1 mL per vial.
as §1
Day 0: Assay ready plates were prepared by dispensing 50 nL of compound stock or DMSO in the appropriate wells of 384-well white CulturPlates using Echo550. Using the Multiflo, H358 cells at 50 μL/well were plated in RPMI 1640 complete media+10% HI-FBS+1% pen/strep at cell density determined [20,000 cells/mL (1,000 cells/well)] from growth curve. Treated cells were inclubated at 37° C., 5% CO2, relative humidity >90% for 7 days. CellTiter-Glo (CTG) ATP detection reagent was prepared according to manufacturer's specifications. Cell assay plates were removed from incubator and bring to room temperature (RT).
Using the MultiDrop liquid handler, 30 μL of CTG were added per well. Plates were placed on the multidrop dispenser shake for 5 seconds at RT. Plates were incubated for 30 minutes in the dark at RT before measuring luminescence using the Envison2104.
Data analysis: Using the DMSO control wells as the 0% inhibition (high signal) control and the 10 uM Doxorubicin control wells as the 100% inhibition (low signal) control, percent inhibition EC50s (inflection point) and IC50s were calculated for the compound dose responses.

FL-SMARCA4 = FL-SMARCA4 (Homo sapiens, UniProt P51532); assay: SMARCA4 ATPase activity assay (ADP-Glo, chicken mononucleosome substrate)
FL-SMARCA4, sequence (P51532 whole entry): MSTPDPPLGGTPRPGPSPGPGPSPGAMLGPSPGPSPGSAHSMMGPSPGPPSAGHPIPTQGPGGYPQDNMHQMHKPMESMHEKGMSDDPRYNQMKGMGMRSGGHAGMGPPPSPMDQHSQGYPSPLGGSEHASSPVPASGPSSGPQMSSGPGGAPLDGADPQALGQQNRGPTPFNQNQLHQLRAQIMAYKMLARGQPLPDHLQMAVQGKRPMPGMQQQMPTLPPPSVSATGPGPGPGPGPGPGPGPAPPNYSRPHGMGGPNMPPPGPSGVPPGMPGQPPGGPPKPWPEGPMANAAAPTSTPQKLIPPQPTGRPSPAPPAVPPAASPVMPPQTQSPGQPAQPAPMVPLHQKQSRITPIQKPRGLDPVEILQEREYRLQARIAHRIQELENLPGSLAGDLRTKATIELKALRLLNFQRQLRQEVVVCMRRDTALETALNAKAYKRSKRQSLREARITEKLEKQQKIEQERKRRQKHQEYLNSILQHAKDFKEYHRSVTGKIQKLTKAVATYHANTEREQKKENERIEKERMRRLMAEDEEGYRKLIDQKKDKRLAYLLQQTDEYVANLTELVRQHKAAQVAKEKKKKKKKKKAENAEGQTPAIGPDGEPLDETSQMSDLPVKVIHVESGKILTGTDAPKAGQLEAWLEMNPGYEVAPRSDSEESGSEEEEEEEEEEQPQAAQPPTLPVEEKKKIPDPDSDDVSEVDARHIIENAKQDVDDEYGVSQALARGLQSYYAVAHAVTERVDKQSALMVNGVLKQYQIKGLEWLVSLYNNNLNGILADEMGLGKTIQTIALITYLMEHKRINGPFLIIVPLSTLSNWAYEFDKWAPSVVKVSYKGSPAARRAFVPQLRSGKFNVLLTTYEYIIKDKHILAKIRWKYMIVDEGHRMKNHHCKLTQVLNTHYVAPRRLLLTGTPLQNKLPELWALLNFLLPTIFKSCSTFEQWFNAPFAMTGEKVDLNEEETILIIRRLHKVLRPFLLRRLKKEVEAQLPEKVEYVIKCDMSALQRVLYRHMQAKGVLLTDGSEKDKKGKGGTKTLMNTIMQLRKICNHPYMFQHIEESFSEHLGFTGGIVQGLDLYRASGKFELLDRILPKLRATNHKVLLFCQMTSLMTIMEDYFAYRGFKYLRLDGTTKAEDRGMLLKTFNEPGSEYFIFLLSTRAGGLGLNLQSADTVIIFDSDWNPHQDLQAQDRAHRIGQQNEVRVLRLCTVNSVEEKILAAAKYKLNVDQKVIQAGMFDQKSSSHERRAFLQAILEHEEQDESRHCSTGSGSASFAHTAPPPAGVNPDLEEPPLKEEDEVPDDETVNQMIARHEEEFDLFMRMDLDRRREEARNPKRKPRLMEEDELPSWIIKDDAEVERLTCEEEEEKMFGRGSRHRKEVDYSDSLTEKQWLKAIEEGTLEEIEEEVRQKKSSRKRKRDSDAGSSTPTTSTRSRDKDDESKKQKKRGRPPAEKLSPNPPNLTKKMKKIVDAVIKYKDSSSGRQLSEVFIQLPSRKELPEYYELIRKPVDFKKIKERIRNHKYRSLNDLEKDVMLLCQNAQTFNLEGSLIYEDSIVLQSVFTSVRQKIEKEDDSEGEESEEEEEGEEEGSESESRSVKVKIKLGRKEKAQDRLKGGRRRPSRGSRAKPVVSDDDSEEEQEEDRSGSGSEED

[2] = Table 3d.1, read-out: FL-SMARCA2 IC>50
[3] = FL-SMARCA4 IC50, Table 3.2, ATPase assay, enzyme 5 nM, ATP 250 uM, chicken mononucleosome 10 nM, 30 min preincubation
[4] = FL-SMARCA4 IC>50, Table 3c.2, ATPase assay, enzyme 5 nM, ATP 250 uM, chicken mononucleosome 10 nM, 30 min preincubation

| SMILES | IC50 [1, 2] | IC50 (A549 cells) | IC50 (H358 cells) | IC50 (FL-SMARCA4; FL-SMARCA4 IC50) | IC50 ([1]; Table 3.1) | IC50 (FL-SMARCA4; [3]) | IC50 ([1]; Table 3c.1) | IC50 (FL-SMARCA4; [4]) |
| --- | --- | --- | --- | --- | --- | --- | --- | --- |
| O=C(Nc1cc(F)c(=O)n(CC(F)F)c1)c1cc(C#C[C@H]2C[C@H](O)C2)c(Cl)s1 [Compound 73d] | 0.0109 µM | 1.81 µM | > 10 µM | 0.0327 µM |  |  |  |  |
| CNC(=O)c1cc(C#Cc2cc(C(=O)Nc3cc(F)c(=O)n(CC(F)F)c3)sc2Cl)ccn1 [Compound 130c] |  | 1.21 µM | > 10 µM |  |  |  | 0.0166 µM | 0.044 µM |
| CNS(=O)(=O)c1cccc(C#Cc2cc(C(=O)Nc3cc(F)c(=O)n(CC(F)F)c3)sc2Cl)c1 [Compound 99c] |  | 1.7 µM | > 10 µM |  |  |  | 0.0406 µM | 0.0801 µM |
| O=C(Nc1cc(F)c(=O)n(CC(F)F)c1)c1cc(C#Cc2cccnc2)c(C(F)(F)F)s1 [Compound 65c] |  | 4.32 µM | > 10 µM |  |  |  | 0.0337 µM | 0.154 µM |
| NC(=O)c1ccc(C#Cc2cc(C(=O)Nc3cc(F)c(=O)n(CC(F)F)c3)sc2Cl)cc1 [Compound 68c] |  | 5.91 µM | > 10 µM |  |  |  | 0.0671 µM | 0.121 µM |
| O=C(Nc1cc(F)c(=O)n(CC(F)F)c1)c1cc(C#Cc2cn3c(n2)CNCC3)c(Cl)s1 [Compound 147c] |  | > 10 µM | > 10 µM |  |  |  | 5.24 µM | 7.96 µM |
| CCn1cc(C#Cc2cc(C(=O)Nc3cc(F)c(=O)n(CC(F)F)c3)sc2Cl)cn1 [Compound 54c] |  | 1.92 µM | > 10 µM |  |  |  | 0.0452 µM | 0.166 µM |
| C#Cc1cc(NC(=O)c2cc(F)c(Cl)s2)cn(CC(F)F)c1=O [Compound 342] |  | 9.49 µM | > 10 µM |  | 0.278 µM | 0.739 µM |  |  |
| O=C(Nc1cc(F)c(=O)n(CC(F)F)c1)c1cc(C#CC2CCO2)c(Cl)s1 (centres unmarked) [Compound 77d] | 0.16 µM | 7.44 µM | > 10 µM | 0.463 µM |  |  |  |  |
| Cn1cncc1C#Cc1cc(C(=O)Nc2cc(F)c(=O)n(CC(F)F)c2)sc1Cl [Compound 330] |  | > 10 µM | 8.74 µM |  |  |  |  |  |
| O=C(Nc1cc(Cl)c(=O)n(CC(F)F)c1)c1cc(Cl)c(C(F)(F)F)s1 [Compound 79d] | 0.0432 µM | 3.65 µM | > 10 µM |  |  |  |  |  |

More lines, now with the values ahead:

| IC50 [1, 2] | IC50 (A549 cells) | IC50 (H358 cells) | IC50 (FL-SMARCA4; FL-SMARCA4 IC50) | IC50 ([1]; Table 3.1) | IC50 (FL-SMARCA4; [3]) | IC50 ([1]; Table 3c.1) | IC50 (FL-SMARCA4; [4]) | SMILES |
| --- | --- | --- | --- | --- | --- | --- | --- | --- |
| 0.0701 µM | 2.12 µM | > 10 µM | 0.201 µM |  |  |  |  | O=C(Nc1cc(F)c(=O)n(CC(F)F)c1)c1cc(C#C[C@H]2CCC[C@@H](O)C2)c(Cl)s1 [Compound 120d] |
|  | 0.492 µM | > 10 µM |  | 0.023 µM | 0.107 µM |  |  | O=C(Nc1cc(F)c(=O)n(CC(F)F)c1)c1cc(C#CC2COC2)c(Cl)s1 [Compound 343] |
|  | > 10 µM | > 10 µM |  |  |  | 0.251 µM | 0.492 µM | Cn1cnc(C#Cc2cc(C(=O)Nc3cc(F)c(=O)n(CC(F)F)c3)sc2Cl)c1 [Compound 60c] |
|  | 1.51 µM | > 10 µM |  |  |  | 0.0267 µM | 0.0867 µM | Cc1nc(C#Cc2cc(C(=O)Nc3cc(F)c(=O)n(CC(F)F)c3)sc2Cl)cs1 [Compound 61c] |
|  | > 10 µM | > 10 µM |  |  |  | 0.0909 µM | 0.239 µM | NC(=O)Cn1cc(C#Cc2cc(C(=O)Nc3cc(F)c(=O)n(CC(F)F)c3)sc2Cl)cn1 [Compound 120c] |
|  | 2.33 µM | > 10 µM |  |  |  | 0.12 µM | 0.346 µM | Cc1sc(C(=O)Nc2cc(F)c(=O)n(CC(F)F)c2)cc1C#CC1COC1 [Compound 92c] |
|  | 0.932 µM | > 10 µM |  |  |  |  | 0.0145 µM | O=C(Nc1cc(F)c(=O)n(CC(F)F)c1)c1cc(C#Cc2ccnc(-c3ncco3)c2)c(Cl)s1 [Compound 150c] |
|  | > 10 µM | > 10 µM |  |  |  | 0.352 µM |  | Cc1nnc(C#Cc2cc(C(=O)Nc3cc(F)c(=O)n(CC(F)F)c3)sc2Cl)[nH]1 [Compound 127c] |
|  | 0.614 µM | > 10 µM |  |  |  | 0.0142 µM |  | O=C(Nc1cc(F)c(=O)n(CC(F)F)c1)c1cc(F)c(C(F)(F)F)s1 [Compound 25c] |

— US20220356174A1, “PYRIDIN-2-ONE COMPOUNDS USEFUL AS SMARCA2 ANTAGONISTS” (Epizyme, Inc., priority 2018, published 2022)
